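Compound exposure: 48 hours, 5 concentrations, 96-well plates. GI50 is the concentration that inhibits growth by half.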 The source made the active and inactive calls. No stated cut-off is given here; in the data, active = GI50 up to about 1.1 µM and inactive = higher.

Among the test systems are COLO 205; MOLT-4; SF-268; UACC-257; HL-60; OVCAR-5; HCT-116; MDA-MB-435; CAKI-1; SN12C; EKVX; NCI-H226; UO-31; SNB-75; HCT-15; PC-3; NCI-H460; SK-OV-3; SR; HOP-92.
Experiment in all cases: growth of human tumour cells (NCI), 48 h

Take `Clc1ccc(OCC2NC3CCC2CC3)cn1` (centres undefined): the GI50 with COLO 205 is 17.1 µM (inactive); in the experiment with MOLT-4, 17.2 µM (inactive); in the experiment with SF-268, 51.6 µM (inactive); in the experiment with UACC-257 it was 17.8 µM (inactive); with HL-60 it was 24.4 µM (inactive); with OVCAR-5 it was 52 µM (inactive). Also, the GI50 with HCT-116 is 20.7 µM (inactive); in the experiment with MDA-MB-435 it was 20.4 µM (inactive); with CAKI-1, 42.5 µM (inactive); in the experiment on SN12C, 28.4 µM (inactive); in the experiment with EKVX, 26.3 µM (inactive); with NCI-H226 it was > 100 µM (inactive). The GI50 in the experiment on UO-31 was 2.45 µM (inactive); with SNB-75, 61 µM (inactive); in the experiment with HCT-15, 20.7 µM; with PC-3, 25.6 µM (inactive); in the experiment on NCI-H460, 21.3 µM (inactive); in the experiment with SK-OV-3 it was 52.7 µM (inactive). For the same compound, the GI50 is 18.7 µM (inactive) in the experiment on SR and 35.4 µM (inactive) in the experiment on HOP-92.

For `CC(C(O)c1ccccc1)C(O)(C(F)(F)F)C(F)(F)F` (centres undefined), the GI50 in the experiment with COLO 205, with MOLT-4, with SF-268, in the experiment on UACC-257, in the experiment on HL-60 and in the experiment on OVCAR-5 was > 100 µM (inactive) throughout. Besides, the GI50 was > 100 µM (inactive) in the experiment with HCT-116; > 100 µM (inactive) in the experiment with MDA-MB-435; > 100 µM (inactive) with CAKI-1; > 100 µM (inactive) in the experiment on SN12C; > 100 µM (inactive) in the experiment with EKVX; 69.7 µM (inactive) with NCI-H226. In addition, the GI50 was > 100 µM (inactive) with UO-31; 65.3 µM (inactive) in the experiment with SNB-75; more than 100 µM in the experiment on HCT-15; > 100 µM (inactive) with PC-3; > 100 µM (inactive) in the experiment on NCI-H460; > 100 µM (inactive) in the experiment with SK-OV-3. Also, the GI50 in the experiment with SR is > 100 µM (inactive); with HOP-92 it was 50.8 µM (inactive).

With `O=C(NCCCNCCN1C(=O)c2cccc3cc([N+](=O)[O-])cc(c23)C1=O)c1cc(-c2ccccc2)nc2ccccc12`, the GI50 is 1.45 µM (inactive) in the experiment on COLO 205; 0.347 µM (active) in the experiment with MOLT-4; 1.39 µM (inactive) in the experiment on SF-268; 2.21 µM (inactive) with UACC-257; 1.76 µM (inactive) with HL-60; 3.94 µM (inactive) in the experiment with OVCAR-5. The GI50 is 1.23 µM (inactive) in the experiment on HCT-116; 1.46 µM (inactive) in the experiment with MDA-MB-435; 6.07 µM (inactive) in the experiment on CAKI-1; 3.16 µM (inactive) in the experiment with SN12C; 7.52 µM (inactive) in the experiment with EKVX; 7.26 µM (inactive) with NCI-H226. The GI50 in the experiment on UO-31 is 2.52 µM (inactive); with SNB-75 it was 3.62 µM (inactive); in the experiment on HCT-15, 3.03 µM; in the experiment with PC-3 it was 3.61 µM (inactive); with NCI-H460, 1.55 µM (inactive); in the experiment with SK-OV-3, 8.91 µM (inactive). Moreover, the GI50 in the experiment on SR was 0.426 µM (active); in the experiment on HOP-92, 3.18 µM (inactive).

For the compound `O=C(C[n+]1ccccc1)N/N=C(\C(=O)NC1=C(Cl)C(=O)c2ccccc2C1=O)c1c(O)c2ccc(O)cc2oc1=O`, the GI50 was 3.05 µM (inactive) with COLO 205; 11 µM (inactive) with MOLT-4; 9.77 µM (inactive) in the experiment with SF-268; 3.03 µM (inactive) with UACC-257; 3.43 µM (inactive) in the experiment on HL-60; 12.3 µM (inactive) with OVCAR-5. Besides, the GI50 in the experiment on HCT-116 is 2.99 µM (inactive); in the experiment on MDA-MB-435, 2.01 µM (inactive); in the experiment with CAKI-1, 6.64 µM (inactive); with SN12C, 4.44 µM (inactive); in the experiment with EKVX, 12.9 µM (inactive); in the experiment on NCI-H226, 5.56 µM (inactive). In addition, the GI50 in the experiment with UO-31 is 12.2 µM (inactive); with SNB-75, 6.5 µM (inactive); in the experiment on HCT-15 it was 2.42 µM; in the experiment with PC-3, 2.77 µM (inactive); with NCI-H460, 2.52 µM (inactive); with SK-OV-3, 14.1 µM (inactive). The GI50 with SR was 4.19 µM (inactive); in the experiment on HOP-92, 14.8 µM (inactive).

On to `COc1c(O)cc(O)c2c(=O)cc(-c3ccccc3)oc12` [WOGONIN], for which the GI50 with COLO 205 was 64.3 µM (inactive); in the experiment with MOLT-4, 36.1 µM (inactive); in the experiment on SF-268, 37.9 µM (inactive); with UACC-257 it was 87.9 µM (inactive); in the experiment with HL-60, 21.5 µM (inactive); in the experiment with OVCAR-5, 49.7 µM (inactive). The GI50 with HCT-116 is 24.3 µM (inactive); in the experiment on MDA-MB-435, 65.5 µM (inactive); in the experiment on CAKI-1 it was 48.6 µM (inactive); in the experiment with SN12C, 90.6 µM (inactive); with EKVX, 61.5 µM (inactive); in the experiment on NCI-H226 it was 40.9 µM (inactive). The GI50 in the experiment with UO-31 was 2.58 µM (inactive); in the experiment with SNB-75, 56.1 µM (inactive); in the experiment on HCT-15 it was 35.1 µM; with PC-3, 51.1 µM (inactive); in the experiment with NCI-H460, 26.2 µM (inactive); in the experiment on SK-OV-3, 77.8 µM (inactive). Besides, the results for the GI50 in the experiment with SR and in the experiment on HOP-92 were 22.1 µM (inactive) and > 100 µM (inactive), respectively.

Turning to `COc1cc2c(cc1OC)C(=O)/C(=C/c1cc(C)c(O)c(C)c1)C2`, the GI50 with COLO 205 is 5.02 µM (inactive); in the experiment on MOLT-4, < 0.01 µM (active); in the experiment with SF-268, < 0.0143 µM (active); in the experiment with UACC-257 it was 0.755 µM (active); in the experiment with HL-60 it was < 0.01 µM (active); in the experiment with OVCAR-5, 1.63 µM (inactive). Moreover, the GI50 is < 0.0112 µM (active) in the experiment on HCT-116; < 0.01 µM (active) in the experiment on MDA-MB-435; 0.0803 µM (active) with CAKI-1; 0.0244 µM (active) in the experiment with SN12C; < 0.01 µM (active) in the experiment with EKVX; 23.8 µM (inactive) in the experiment on NCI-H226. Further, the GI50 with UO-31 was > 100 µM (inactive); in the experiment with SNB-75, < 0.01 µM (active); in the experiment with HCT-15 it was less than 0.01 µM; in the experiment with PC-3, < 0.01 µM (active); in the experiment with NCI-H460, < 0.01 µM (active); with SK-OV-3, < 0.01 µM (active). For the same compound, the GI50 was < 0.01 µM (active) in the experiment on SR and > 100 µM (inactive) in the experiment on HOP-92.

Take `CCOC(=O)C1c2[nH]c3ccccc3c2CCN1C(=O)c1ccc(OC)o1` (centres undefined): the GI50 in the experiment with COLO 205, in the experiment with MOLT-4, in the experiment with SF-268, in the experiment with UACC-257, in the experiment with HL-60 and with OVCAR-5 was > 10 µM (inactive) in each case. In addition, the GI50 in the experiment on MDA-MB-435, in the experiment with CAKI-1, with SN12C, in the experiment with EKVX, with NCI-H226 and in the experiment on UO-31 was > 10 µM (inactive) in each case. The GI50 in the experiment on SNB-75 was 5.78 µM (inactive); in the experiment on HCT-15, more than 10 µM; with PC-3, > 10 µM (inactive); in the experiment on NCI-H460 it was > 10 µM (inactive); in the experiment with SK-OV-3, > 10 µM (inactive); in the experiment on SR, > 10 µM (inactive). Besides, in the experiment on HOP-92, the GI50 is > 10 µM (inactive).

Values taken from ChEMBL document CHEMBL1201862, “PubChem BioAssay data set” (2004).
